Assay results taken from patent US20120122928A1 (priority 2010, published 2012).
Marks after values point to notes of the source that are not given here.

Key:
Phytophthora infestans = format: in vivo; settings: young tomato plants sprayed, active ingredient concentration of 100 (unit not given); inoculated 1 day after treatment; evaluation 7 days after inoculation; 100% = no infection
Plasmopara viticola = experiment: Plasmopara test (grapevine) / protective; format: in vivo; settings: young grapevine plants sprayed, active ingredient concentration 10 ppm; evaluation 6 days after inoculation; 100% = no infection
Description: Plasmopara Test (Grapevine)/Protective
To produce an appropriate active ingredient formulation, 1 part by weight of active ingredient is mixed with the specified amounts of solvent and emulsifier, and the concentrate is diluted with water to the desired concentration.
To test for protective efficacy, young plants are sprayed with the active ingredient formulation at the stated application rate. After the spray coating has dried on, the plants are inoculated with an aqueous spore suspension of Plasmopara viticola and then remain in an incubation cabin at approx. 20° C. and 100% relative air humidity for 1 day. Subsequently, the plants are placed in a greenhouse at approx. 21° C. and approx. 90% air humidity for 4 days. The plants are then moistened and placed in an incubation cabin for 1 day.
Evaluation follows 6 days after the inoculation. 0% means an efficacy which corresponds to that of the control, whereas an efficacy of 100% means that no infection is observed.
In this test, the following inventive compounds show, at an active ingredient concentration of 10 ppm, an efficacy of 70% or more: […]

[1] = LC-MS determination in the acidic range, pH 2.7, 0.1% aqueous formic acid and acetonitrile

Row | SMILES | % eff. (Phytophthora infestans) | % eff. (Plasmopara viticola) | Log P [a] [1]
1 | Cc1cc(C(F)F)nn1CC(=O)N1CCC(c2nc(C3=NOC(COc4c(Cl)cccc4Cl)C3)cs2)CC1 (stereo not drawn) [I-45] | 93% | 100% | 3.35
2 | Cc1ccc(C)c(CC(=O)N2CCC(c3nc(C4=NOC(COc5ccccc5)C4)cs3)CC2)c1 (stereo not drawn) [I-29] | 100% | 78% | 3.71
3 | O=C(Cn1nc(C(F)F)cc1C(F)F)N1CCC(c2nc(C3=NOC(C(O)c4ccccc4)C3)cs2)CC1 (stereo not drawn) [I-8] | 100% | 93% | 2.53^[a]
4 | O=C(Cn1nc(C(F)F)cc1C(F)F)N1CCC(c2nc(C3=NOC(COc4c(F)cccc4Cl)C3)cs2)CC1 (stereo not drawn) [I-74] | 100% | 100% | 3.44
5 | O=C(Nc1cc(C(F)F)ccc1C(F)F)N1CCC(c2nc(C3=NOC(C(F)c4c(F)cccc4F)C3)cs2)CC1 (stereo not drawn) [I-30] | 95% | 100% | 3.60^[a]
6 | O=C(Cn1nc(C(F)F)cc1C(F)F)N1CCC(c2nc(C3=NOC(COc4ccccc4C=NO)C3)cs2)CC1 (mixture of isomers) [I-64] | 95% | 73% | 2.62
7 | Fc1cccc(F)c1C(F)C1CC(c2csc(C3CCN(C(=S)Cn4nc(C(F)F)cc4C(F)F)CC3)n2)=NO1 (stereo not drawn) [I-18] | 95% | 100% | 3.81^[a]
8 | Cc1ccc(Cl)cc1NC(=O)N1CCC(c2nc(C3=NOC(COc4c(F)cccc4Cl)C3)cs2)CC1 (stereo not drawn) [I-51] | 95% | 93% | 3.81
9 | Cc1ccc(C)c(NC(=S)N2CCC(c3nc(C4=NOC(C(F)c5c(F)cccc5F)C4)cs3)CC2)c1 (stereo not drawn) [I-32] | 94% | 78% | 3.80^[a]
10 | Cc1ccc(C)c(NC(=S)N2CCC(c3nc(C4=NOC(C(F)c5ccccc5)C4)cs3)CC2)c1 (stereo not drawn) [I-39] | 100% | 78% | 3.61^[a]
11 | Cc1ccc(C)c(NC(=O)N2CCC(c3nc(C4=NOC(COc5ccccc5)C4)cs3)CC2)c1 (stereo not drawn) [I-41] | 100% | 94% | 3.36
12 | Cc1cc(C(F)(F)F)nn1CC(=O)N1CCC(c2nc(C3=NOC(C(C)(C)c4c(F)cccc4Cl)C3)cs2)CC1 (stereo not drawn) [I-67] | 94% | 100% | 4.43
13 | CC(C)(c1c(F)cccc1F)C1CC(c2csc(C3CCN(C(=O)Nc4cc(C(F)F)ccc4C(F)F)CC3)n2)=NO1 (stereo not drawn) [I-68] | 94% | 96% | 4.29
14 | O=C(Cn1nc(C(F)F)cc1C(F)F)N1CCC(c2nc(C3=NOC(CS(=O)(=O)c4ccccc4)C3)cs2)CC1 (stereo not drawn) [I-7] | 100% | 96% | 2.65^[a]; 2.65^[b]
15 | O=C(Cn1nc(C(F)F)cc1C(F)F)N1CCC(c2nc(C3=NOC(CSc4ccccc4Cl)C3)cs2)CC1 (stereo not drawn) [I-61] | 91% | 93% | 3.68
16 | O=C(Cn1nc(C(F)F)cc1C(F)F)N1CCC(c2nc(C3=NOC(COc4c(Cl)cccc4Cl)C3)cs2)CC1 (stereo not drawn) [I-1] | 100% | 100% | 3.7
17 | O=C(Cn1nc(C(F)F)cc1C(F)F)N1CCC(c2nc(C3=NOC(C(F)c4c(F)cccc4F)C3)cs2)CC1 (stereo not drawn) [I-17] | 95% | 100% | 3.36^[a]
18 | O=C(Cn1nc(C(F)F)cc1C(F)F)N1CCC(c2nc(C3=NOC(C(F)c4ccccc4)C3)cs2)CC1 (stereo not drawn) [I-5] | 100% | 100% | 3.23^[a]
19 | FC(F)c1cc(C(F)F)n(CC(=S)N2CCC(c3nc(C4=NOC(COc5ccccc5)C4)cs3)CC2)n1 (stereo not drawn) [I-34] | 100% | 96% | 3.73
20 | Cc1ccc(C)c(NC(=S)N2CCC(c3nc(C4=NOC(C(F)(F)c5c(F)cccc5F)C4)cs3)CC2)c1 (stereo not drawn) [I-27] | 90% | 92% | 3.81^[a]
